Source: paper PMC4839570, “Novel Anthra[1,2-c][1,2,5]Thiadiazole-6,11-Diones as Promising Anticancer Lead Compounds: Biological Evaluation, Characterization & Molecular Targets Determination” (PLoS ONE, 2016)
Like-named read-outs stand apart in the source and are kept apart here.

How the values were obtained:
Assay in all cases: NCI-60 cytotoxicity screen
Format in all cases: cell-based
HL-60(TB) = test system: HL-60(TB)
A549/ATCC = test system: A549/ATCC
HOP-92 = test system: HOP-92
NCI-H460 = test system: NCI-H460
NCI-H522 = test system: NCI-H522
HCT-116 = test system: HCT-116
SF-539 = test system: SF-539
SNB-19 = test system: SNB-19
MDA-MB-435 = test system: MDA-MB-435
SK-MEL-2 = test system: SK-MEL-2
SK-MEL-28 = test system: SK-MEL-28
SK-MEL-5 = test system: SK-MEL-5
UACC-62 = test system: UACC-62
NCI/ADR-RES = test system: NCI/ADR-RES
[1] = Homo sapiens, Fig 7, read-out: mean log10 of the GI50 values (converted)
[2] = Homo sapiens, five-dose, read-out: GI50
[3] = Homo sapiens, five-dose, read-out: LC50 (the source's name)

O=C1c2ccccc2C(=O)c2c1ccc1nsnc21 [NSC745885, anthra[1,2-c][1,2,5]thiadiazole-6,11-dione]
GI50 (HL-60(TB); [1]): 0.589 µM | GI50 (HL-60(TB); [2]): 0.16 µM | CC50 (HL-60(TB); [3]): 0.99 µM | TGI (HL-60(TB); five-dose): 0.39 µM | GI50 (A549/ATCC; [1]): 5.75 µM | GI50 (A549/ATCC; [2]): 14.7 µM | CC50 (A549/ATCC; [3]): 91 µM | TGI (A549/ATCC; five-dose): 36.6 µM | GI50 (HOP-92; [1]): 2.69 µM | GI50 (HOP-92; [2]): 2.52 µM | CC50 (HOP-92; [3]): > 100 µM | TGI (HOP-92; five-dose): 6.64 µM | GI50 (NCI-H460; Homo sapiens, NCI-460, five-dose, read-out: GI50): 3.27 µM | CC50 (NCI-H460; Homo sapiens, NCI-460, five-dose, read-out: LC50 (the source's name)): 47.3 µM | GI50 (NCI-H460; Homo sapiens, NCI-H460, Fig 7, read-out: mean log10 of the GI50 values (converted)): 2.45 µM | TGI (NCI-H460; NCI-460, five-dose): 14.3 µM | GI50 (NCI-H522; [1]): 2.24 µM | GI50 (NCI-H522; [2]): 1.66 µM | CC50 (NCI-H522; [3]): 9.31 µM | TGI (NCI-H522; five-dose): 3.93 µM | GI50 (HCT-116; [1]): 2.34 µM | GI50 (HCT-116; [2]): 1.93 µM | CC50 (HCT-116; [3]): > 100 µM | TGI (HCT-116; five-dose): 5.40 µM | GI50 (SF-539; [1]): 1.48 µM | GI50 (SF-539; [2]): 1.46 µM | CC50 (SF-539; [3]): 5.91 µM | TGI (SF-539; five-dose): 2.94 µM | GI50 (SNB-19; [1]): 2.04 µM | GI50 (SNB-19; [2]): 2.28 µM | CC50 (SNB-19; [3]): 26 µM | TGI (SNB-19; five-dose): 5.82 µM | GI50 (MDA-MB-435; [1]): 1.91 µM | GI50 (MDA-MB-435; [2]): 1.91 µM | CC50 (MDA-MB-435; [3]): 5.76 µM | TGI (MDA-MB-435; five-dose): 3.31 µM | GI50 (SK-MEL-2; [1]): 2 µM | GI50 (SK-MEL-2; [2]): 1.68 µM | CC50 (SK-MEL-2; [3]): 22.5 µM | TGI (SK-MEL-2; five-dose): 4.22 µM | GI50 (SK-MEL-28; [1]): 4.27 µM | GI50 (SK-MEL-28; [2]): 1.85 µM | CC50 (SK-MEL-28; [3]): 6.18 µM | TGI (SK-MEL-28; five-dose): 3.38 µM | GI50 (SK-MEL-5; [1]): 1.35 µM | GI50 (SK-MEL-5; [2]): 1.58 µM | CC50 (SK-MEL-5; [3]): 5.41 µM | TGI (SK-MEL-5; five-dose): 2.92 µM | GI50 (UACC-62; [1]): 1.82 µM | GI50 (UACC-62; [2]): 1.45 µM | CC50 (UACC-62; [3]): 5.79 µM | TGI (UACC-62; five-dose): 2.90 µM | GI50 (NCI/ADR-RES; [1]): 0.891 µM | GI50 (NCI/ADR-RES; [2]): 1.86 µM | CC50 (NCI/ADR-RES; [3]): > 100 µM | TGI (NCI/ADR-RES; five-dose): 12.6 µM
